For the assay, the species on record is Homo sapiens. Put plainly: Hypocholesterolemic effect in hypercholesterolemia patient assessed as decrease in LDL cholesterol level. The format is functional. Also on record: scale not given: the % may be the effect or the level left.

Structures are written as SMILES.

On to `CC[C@H](C)C(=O)O[C@H]1C[C@@H](C)C=C2C=C[C@H](C)[C@H](CC[C@@H]3C[C@@H](O)CC(=O)O3)[C@H]21` [LOVASTATIN], for which the Activity is recorded as 22%.

Values taken from ChEMBL document CHEMBL4145452, “Polymeric bile acid sequestrants: Review of design, in vitro binding activities, and hypocholesterolemic effects” (Eur J Med Chem, 2018).
